Experimental data from publication PMC4762250, “Novel cis-selective and non-epimerisable C3 hydroxy azapodophyllotoxins targeting microtubules in cancer cells” (European Journal of Medicinal Chemistry, 2016).
Entries after “also recorded” stand apart in the source; their conditions may differ. Where two headings read alike, the source gives them in different places.

Columns and labels:
[1] = test system: human breast cancer cell line MCF-7; test: Oncotest propidium iodide monolayer cell proliferation assay, MCF-7; type: cell-based; details: mean absolute IC50, 96 h treatment, propidium iodide endpoint, triplicate, read-out: MCF-7 IC50
Description: (§1) The anticancer activity of compounds (8a-q) was evaluated using the Oncotest monolayer assay in the human prostate cancer cell line 22Rv1 and the human breast cancer cell line MCF-7, as an outsourced service. […] Antitumour activity was assessed after four days of treatment with the compounds using a propidium iodide based monolayer assay. Potency is expressed as absolute IC50 values, calculated by non-linear regression analysis following testing in triplicate. The seventeen inhibitors were tested at 10 concentrations in half-log increments up to 100 μM in triplicate.
(§2) A modified propidium iodide (PI) based monolayer assay was used to assess the anti-cancer activity of the compounds. Briefly, cells were harvested from exponential phase cultures, counted and plated in 96-well flat-bottom microtiter plates at a cell density of 8.000–12.000 cells/well. After a 24 h recovery period to allow the cells to resume exponential growth, 10 μl of culture medium (six control wells/plate) or culture medium with test compound were added. The compounds were applied in half-log increments at 10 concentrations in triplicate. After a total treatment period of 96 h, cells were washed with 200 μl PBS to remove dead cells and debris. Then, 200 μl of a solution containing 7 μg/mL propidium iodide (PI) was added. After an incubation period of 1–2 h at room temperature, fluorescence (FU) was measured using the EnSpire Multimode Plate Reader (excitation λ = 530 nm, emission λ = 620 nm) to quantify the amount of attached viable cells. IC50 values were calculated by 4-parameter non-linear curve fit using Oncotest Warehouse Software. For calculation of mean IC50 values the geometric mean was used.

[2] = test system: human prostate cancer cell line 22Rv1; test: Oncotest propidium iodide monolayer cell proliferation assay, 22Rv1; type: cell-based; details: mean absolute IC50, 96 h treatment, propidium iodide endpoint, triplicate
Description: as §1, §2

MCF-7 and 22Rv1 = test: Oncotest monolayer assay, results stated over both cell lines; type: cell-based, human; details: for IC50: Homo sapiens; for antiproliferative activity (in words): MCF-7 and 22Rv1
Description: as §1, §2

[3] = geometric mean over MCF-7 and 22Rv1, read-out: Mean IC50 values

Row | IC50 ([1]; Homo sapiens, MCF7, 96 h) | IC50 ([2]; Homo sapiens, 22Rv1, 96 h) | IC50 (MCF-7 and 22Rv1; [3]) | IC50 [1] | IC50 [2] | IC50 (MCF-7 and 22Rv1; range or bound over both cell lines MCF-7 and 22Rv1, read-out: IC50 values in the range) | Compound | antiproliferative activity (in words) (MCF-7 and 22Rv1)
1 | 648 nM | 855 nM | 500 to 1000 nM | – | – | – | CSc1ccc([C@@H]2c3c(c4cccnc4c4ncccc34)N[C@@]3(O)COC(=O)[C@H]23)cc1 (mixture of isomers) [Compound 8a, (9aS, 12aR, 13R) and (9aR, 12aS, 13S) 9a-hydroxy-13-(4-(methylthio)phenyl)-9a,10,12a,13-tetrahydrofuro[3,4-b]pyrido[3,2-f][1,10]phenanthrolin-12(9H)-one] | –
2 | 466 nM | 257 nM | – | – | – | – | O=C1OC[C@]2(O)Nc3c(c4cccnc4c4ncccc34)[C@@H](c3cccc(OC(F)(F)F)c3)[C@@H]12 (mixture of isomers) [Compound 8c, (9aS, 12aR, 13R) and (9aR, 12aS, 13S) 9a-hydroxy-13-(3-(trifluoromethoxy)phenyl)-9a,10,12a,13-tetrahydrofuro[3,4-b]pyrido[3,2-f][1,10]phenanthrolin-12(9H)-one] | –
3 | 424 nM | 239 nM | – | – | – | – | O=C1OC[C@]2(O)Nc3c(c4cccnc4c4ncccc34)[C@@H](c3ccc(OC(F)(F)F)cc3)[C@@H]12 (mixture of isomers) [Compound 8d, (9aS, 12aR, 13R) and (9aR, 12aS, 13S) 9a-hydroxy-13-(4-(trifluoromethoxy)phenyl)-9a,10,12a,13-tetrahydrofuro[3,4-b]pyrido[3,2-f][1,10]phenanthrolin-12(9H)-one] | –
4 | 825 nM | 510 nM | 500 to 1000 nM | – | – | – | O=C1OC[C@]2(O)Nc3c(c4cccnc4c4ncccc34)[C@@H](c3cccc(C(F)(F)F)c3)[C@@H]12 (mixture of isomers) [Compound 8f, (9aS, 12aR, 13R) and (9aR, 12aS, 13S) 9a-hydroxy-13-(3-(trifluoromethyl)phenyl)-9a,10,12a,13-tetrahydrofuro[3,4-b]pyrido[3,2-f][1,10]phenanthrolin-12(9H)-one] | –
5 | 589 nM | 311 nM | < 500 nM | – | – | – | O=C1OC[C@]2(O)Nc3c(c4cccnc4c4ncccc34)[C@@H](c3cccc(S(F)(F)(F)(F)F)c3)[C@@H]12 (mixture of isomers) [Compound 8g, (9aS, 12aR, 13R) and (9aR, 12aS, 13S) 9a-hydroxy-13-(3-(pentafluorosulfanyl)phenyl)-9a,10,12a,13-tetrahydrofuro[3,4-b]pyrido[3,2-f][1,10]phenanthrolin-12(9H)-one] | more active than etoposide in both cell lines; also recorded: submicromolar activity
6 | 475 nM | 242 nM | < 500 nM | – | – | – | Cc1cc(OC(F)(F)F)cc([C@@H]2c3c(c4cccnc4c4ncccc34)N[C@@]3(O)COC(=O)[C@H]23)c1 (mixture of isomers) [Compound 8h, (9aS, 12aR, 13R) and (9aR, 12aS, 13S) 9a-hydroxy-13-(3-methyl-5-trifluoromethoxyphenyl)-9a,10,12a,13-tetrahydrofuro[3,4-b]pyrido[3,2-f][1,10] phenanthrolin-12(9H)-one] | more active than etoposide in both cell lines
7 | 2300 nM | 894 nM | < 10000 nM | – | – | – | O=C1OC[C@]2(O)Nc3c(c4cccnc4c4ncccc34)[C@@H](c3ccc(SC(F)(F)F)cc3)[C@@H]12 (mixture of isomers) [Compound 8i, (9aS, 12aR, 13R) and (9aR, 12aS, 13S) 9a-hydroxy-13-(4-((trifluoromethyl)thio)phenyl)-9a,10,12a,13-tetrahydrofuro[3,4-b]pyrido [3,2-f][1,10]phenanthrolin-12(9H)-one] | –
8 | 643 nM | 380 nM | < 500 nM | – | – | – | O=C1OC[C@]2(O)Nc3c(c4cccnc4c4ncccc34)[C@@H](c3cc(C(F)(F)F)cc(C(F)(F)F)c3)[C@@H]12 (mixture of isomers) [Compound 8j, (9aS, 12aR, 13R) and (9aR, 12aS, 13S) 13-(3,5-bis(trifluoromethyl)phenyl)-9a-hydroxy-9a,10,12a,13-tetrahydrofuro[3,4-b]pyrido[3,2-f][1,10] phenanthrolin-12(9H)-one] | submicromolar activity
9 | 355 nM | 295 nM | < 500 nM | – | – | – | CCOc1ccc([C@@H]2c3c(c4cccnc4c4ncccc34)N[C@@]3(O)COC(=O)[C@H]23)cc1C(F)(F)F (mixture of isomers) [Compound 8k, (9aS, 12aR, 13R) and (9aR, 12aS, 13S) 13-(4-ethoxy-3-(trifluoromethyl)phenyl)-9a-hydroxy-9a,10,12a,13-tetrahydrofuro[3,4-b]pyrido[3,2-f][1,10] phenanthrolin-12(9H)-one] | more active than etoposide in both cell lines
10 | 901 nM | 719 nM | 500 to 1000 nM | – | – | – | O=C1OC[C@]2(O)Nc3c(c4cccnc4c4ncccc34)[C@@H](c3ccc(OC(F)F)cc3)[C@@H]12 (mixture of isomers) [Compound 8l, (9aS, 12aR, 13R) and (9aR, 12aS, 13S) 13-(4-(difluoromethoxy)phenyl)-9a-hydroxy-9a,10,12a,13-tetrahydrofuro[3,4-b]pyrido[3,2-f][1,10]phenanthrolin-12(9H)-one] | –
11 | 3310 nM | 2840 nM | < 10000 nM | – | – | – | Cc1ccc(OC(F)(F)F)cc1[C@@H]1c2c(c3cccnc3c3ncccc23)N[C@@]2(O)COC(=O)[C@H]12 (mixture of isomers) [Compound 8m, (9aS, 12aR, 13R) and (9aR, 12aS, 13S) 9a-hydroxy-13-(2-methyl-5-(trifluoromethoxy)phenyl)-9a,10,12a,13-tetrahydrofuro[3,4-b]pyrido[3,2-f][1,10]phenanthrolin-12(9H)-one] | –
12 | 857 nM | 590 nM | 500 to 1000 nM | – | – | – | O=C1OC[C@]2(O)Nc3c(c4cccnc4c4ncccc34)[C@@H](c3ccc(S(F)(F)(F)(F)F)cc3)[C@@H]12 (mixture of isomers) [Compound 8n, (9aS, 12aR, 13R) and (9aR, 12aS, 13S) 9a-hydroxy-13-(4-(pentafluorosulfanyl)phenyl)-9a,10,12a,13-tetrahydrofuro[3,4-b]pyrido[3,2-f][1,10] phenanthrolin-12(9H)-one] | submicromolar activity
13 | 396 nM | 322 nM | < 500 nM | – | – | – | COc1cc(OC(F)(F)F)ccc1[C@@H]1c2c(c3cccnc3c3ncccc23)N[C@@]2(O)COC(=O)[C@@H]12 (mixture of isomers) [Compound 8o, (9aS, 12aS, 13S) and (9aR, 12aR, 13R) 9a-hydroxy-13-(2-methoxy-4-(trifluoromethoxy)phenyl)-9a,10,12a,13-tetrahydrofuro[3,4-b]pyrido[3,2-f][1,10]phenanthrolin-12(9H)-one] | more active than etoposide in both cell lines
14 | 7300 nM | 4000 nM | < 10000 nM | 7250 nM | 4000 nM | – | COc1cc([C@@H]2c3c(c4cccnc4c4ncccc34)N[C@@]3(O)COC(=O)[C@H]23)cc2c1OCO2 (mixture of isomers) [Compound 8p, (9aS, 12aR, 13R) and (9aR, 12aS, 13S) 9a-hydroxy-13-((5-methoxy-3,4-methylenedioxy)phenyl)-9a,10,12a,13-tetrahydrofuro[3,4-b]pyrido[3,2-f][1,10]phenanthrolin-12(9H)-one] | –
15 | 910 nM | 520 nM | 500 to 1000 nM | – | – | – | O=C1OC[C@]2(O)Nc3c(c4cccnc4c4ncccc34)[C@@H](c3ccc4c(c3)OC(F)(F)O4)[C@@H]12 (mixture of isomers) [Compound 8q, (9aS, 12aR, 13R) and (9aR, 12aS, 13S) 13-((3,4-difluoromethylenedioxy)phenyl)-9a-hydroxy-9a,10,12a,13-tetrahydrofuro[3,4-b]pyrido[3,2-f][1,10]phenanthrolin-12(9H)-one] | submicromolar activity
16 | 125 nM | 82 nM | – | – | – | 80 to 130 nM | COc1cc([C@@H]2c3cc4c(cc3[C@@H](O[C@@H]3O[C@@H]5CO[C@@H](c6cccs6)O[C@H]5[C@H](O)[C@H]3O)[C@H]3COC(=O)[C@H]23)OCO4)cc(OC)c1O [Teniposide, reference compound] | –
